The text below walks through data of US20180126014A1, “COMPOSITIONS FOR ENHANCING DELIVERY OF AGENTS ACROSS THE BLOOD BRAIN BARRIER AND METHODS OF USE THEREOF” (Yale University, priority 2015, published 2018).

Where only a bound is given, the exact number is not on record here.

For series [1], the system named is intracranial GL261 tumors. To be noted: NPs co-loaded with IR780 and BBB modulator, three consecutive days, imaged 24 h after last injection. Here is the method:
For the intracranial GL261 tumor implantation, 5-6 week old female C57BL6 mice were anesthetized via intraperitoneal injection of ketamine hydrochloride (75 mg/kg, Abbot Laboratories) and xylazine (7.5 mg/kg, Phoenix Pharmaceutical) in sterile saline. Twenty thousand GL261 cells in 2 μL of PBS were injected into the right striatum (1.8 mm lateral to the bregma and 3 mm of depth) using a stereotactic fixation device with mouse adaptor. For the subcutaneous GL261 xenograft model, 1×10^6 GL261 cells in 100 μL of PBS were inoculated subcutaneously into the right flank region of female C57BL6 mice. For the intracranial U87-MG glioma model, 1×10^6 U87-MG cells in 2 μL of PBS was injected into the right striatum of BALB/c nude mice using the same procedures.
(§1) Then the hair on the head was shaved and mice were anesthetized and imaged using the IVIS fluorescence imaging system on day 20. Finally, mice were sacrificed and organs resected for further imaging.
At 24 h after the last injection, the hair on the head was shaved and mice were anesthetized and imaged using an IVIS imaging system (Xenogen). Finally, mice were sacrificed and organs resected for further imaging. The fluorescence signal intensity of excised organs was quantified using Living Image 3.0.
as §1

Series [2] concerns the target T1, A1 adenosine receptor (Homo sapiens, UniProt P30542).
T1 sequence (P30542 1-326): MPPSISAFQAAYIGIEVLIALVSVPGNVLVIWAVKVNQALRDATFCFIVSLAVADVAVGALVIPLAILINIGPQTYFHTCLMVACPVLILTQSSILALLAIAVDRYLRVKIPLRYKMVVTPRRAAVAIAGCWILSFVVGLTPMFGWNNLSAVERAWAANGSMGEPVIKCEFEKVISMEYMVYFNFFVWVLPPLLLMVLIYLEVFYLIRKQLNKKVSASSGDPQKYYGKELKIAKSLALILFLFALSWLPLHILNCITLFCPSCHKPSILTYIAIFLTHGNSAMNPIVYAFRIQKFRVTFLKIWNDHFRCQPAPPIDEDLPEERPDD
Conditions: cited from earlier work.

Series [3] concerns the target T2, A3 adenosine receptor (Homo sapiens, UniProt P0DMS8).
T2 sequence (P0DMS8 1-318): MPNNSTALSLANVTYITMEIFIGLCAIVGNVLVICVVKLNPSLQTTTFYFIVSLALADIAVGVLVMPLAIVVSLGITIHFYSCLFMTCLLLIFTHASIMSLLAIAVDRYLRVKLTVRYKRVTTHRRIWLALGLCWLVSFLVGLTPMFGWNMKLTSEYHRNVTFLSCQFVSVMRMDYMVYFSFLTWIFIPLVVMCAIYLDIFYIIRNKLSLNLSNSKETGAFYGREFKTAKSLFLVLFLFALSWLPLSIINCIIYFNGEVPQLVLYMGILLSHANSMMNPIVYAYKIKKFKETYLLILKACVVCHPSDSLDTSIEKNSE
Conditions: cited from earlier work.

Series [4] deals with T3, A2B adenosine receptor (Homo sapiens, UniProt P29275).
T3 sequence (P29275 1-332): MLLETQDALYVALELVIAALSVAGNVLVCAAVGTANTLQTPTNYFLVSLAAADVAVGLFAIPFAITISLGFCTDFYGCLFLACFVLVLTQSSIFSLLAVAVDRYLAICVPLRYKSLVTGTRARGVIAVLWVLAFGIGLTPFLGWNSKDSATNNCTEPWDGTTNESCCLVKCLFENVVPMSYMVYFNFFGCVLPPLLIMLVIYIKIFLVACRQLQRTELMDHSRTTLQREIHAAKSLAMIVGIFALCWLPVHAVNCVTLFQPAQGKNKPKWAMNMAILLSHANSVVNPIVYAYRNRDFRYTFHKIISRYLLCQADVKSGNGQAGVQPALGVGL
Conditions: cited from earlier work.

For series [5], the system named is MDA-MB-231Br brain metastases. Briefly: Paclitaxel-loaded ABTT NPs in MDA-MB-231Br derived brain metastasis model. Conditions: three times a week for three weeks. The series is classed as in vivo, mice. As for the experimental part:
Nanoparticles were prepared similarly to those described above for Examples 1 and 6, but including the CTX targeting moiety as described in Example 6. […] Briefly, for synthesis of paclitaxel-loaded NPs, 100 mg mIII-62% in 2 mL DCM containing 2.5 mg LEXISCAN® and 20 mg paclitaxel was added dropwise to 4 mL 2.5% PVA under vortex and sonicated to form a oil/water emulsion. The emulsion was poured into a beaker containing 0.3% PVA and stirred for 3 h to evaporate DCM. NPs were collected by centrifugation at 20000 rpm for 30 min. The precipitate was suspended in PBS and reacted with thiolated CTX […] at room temperature. Nanoparticles were collected, suspended in H2O and lyophilized for storage and characterization.
In both studies, mice were treated with nanoparticles for three times a week for three weeks at a dose of 2 mg/mouse. It is believed that enhanced efficacy can be achieved with a higher dose treatment (maximum tolerated dose >15 mg per treatment) or with extended treatment time.

`CCNC(=O)[C@H]1O[C@@H](n2cnc3c(N)ncnc32)[C@H](O)[C@@H]1O` [NECA, 1-(6-Amino-9H-purin-9-yl)-1-deoxy-N-ethyl-β-D-ribofuranuronamide]: in series [1], the “delivery of CTX-mHph2-III-62% NPs to the brain with encapsulated BBB modulator” value (from here on “delivery of CTX-mHph2-III-62% NPs”) was “significantly enhanced delivery”.

A word on the Ki: it is the equilibrium dissociation constant of an inhibitor or competing ligand from its target. For `CNC(=O)c1cnn(-c2nc(N)c3ncn([C@@H]4O[C@H](CO)[C@@H](O)[C@H]4O)c3n2)c1` [Regadenoson, 2-{4-[(methylamino)carbonyl]-1H-pyrazol-1-yl}adenosine], in series [2], the Ki is greater than 16.5 µM and the “lower affinity for the A1 adenosine receptor than for A2A” value is “at least 10 fold”. Moreover, the affinity entry in series [3] was “weak, if any”. Further, the “delivery of CTX-mHph2-III-62% NPs” value in series [1] was “significantly enhanced delivery”. Moreover, the affinity entry in series [4] is “weak, if any”.

Consider `CC(=O)O[C@H]1C(=O)[C@@]2(C)[C@H]([C@H](OC(=O)c3ccccc3)[C@]3(O)C[C@H](OC(=O)[C@H](O)[C@@H](NC(=O)c4ccccc4)c4ccccc4)C(C)=C1C3(C)C)[C@]1(OC(C)=O)CO[C@@H]1C[C@@H]2O` [free paclitaxel, paclitaxel], for which the median survival time in series [5] stood at 45 days.

`Nc1cc(N2CCCCC2)nc(N)[n+]1[O-]` [minoxidil]: the “delivery of CTX-mHph2-III-62% NPs” value in series [1] is on record as “significantly enhanced delivery”.
